Data: patent US12612410B2 (CHILDREN'S HOSPITAL MEDICAL CENTER, priority 2020, dated 2026)
One block for each molecule: values may come before it.

Experiments:
[1] = target: T1, FLT3 (Homo sapiens, UniProt P36888); experiment: RBC HotSpot Kinase Assay, FLT3; format: biochemical; set-up: purchased Reaction Biology (RBC), HotSpot kinase assay; conditions: isolated kinase, 33P-ATP
T1 sequence (P36888 27-993): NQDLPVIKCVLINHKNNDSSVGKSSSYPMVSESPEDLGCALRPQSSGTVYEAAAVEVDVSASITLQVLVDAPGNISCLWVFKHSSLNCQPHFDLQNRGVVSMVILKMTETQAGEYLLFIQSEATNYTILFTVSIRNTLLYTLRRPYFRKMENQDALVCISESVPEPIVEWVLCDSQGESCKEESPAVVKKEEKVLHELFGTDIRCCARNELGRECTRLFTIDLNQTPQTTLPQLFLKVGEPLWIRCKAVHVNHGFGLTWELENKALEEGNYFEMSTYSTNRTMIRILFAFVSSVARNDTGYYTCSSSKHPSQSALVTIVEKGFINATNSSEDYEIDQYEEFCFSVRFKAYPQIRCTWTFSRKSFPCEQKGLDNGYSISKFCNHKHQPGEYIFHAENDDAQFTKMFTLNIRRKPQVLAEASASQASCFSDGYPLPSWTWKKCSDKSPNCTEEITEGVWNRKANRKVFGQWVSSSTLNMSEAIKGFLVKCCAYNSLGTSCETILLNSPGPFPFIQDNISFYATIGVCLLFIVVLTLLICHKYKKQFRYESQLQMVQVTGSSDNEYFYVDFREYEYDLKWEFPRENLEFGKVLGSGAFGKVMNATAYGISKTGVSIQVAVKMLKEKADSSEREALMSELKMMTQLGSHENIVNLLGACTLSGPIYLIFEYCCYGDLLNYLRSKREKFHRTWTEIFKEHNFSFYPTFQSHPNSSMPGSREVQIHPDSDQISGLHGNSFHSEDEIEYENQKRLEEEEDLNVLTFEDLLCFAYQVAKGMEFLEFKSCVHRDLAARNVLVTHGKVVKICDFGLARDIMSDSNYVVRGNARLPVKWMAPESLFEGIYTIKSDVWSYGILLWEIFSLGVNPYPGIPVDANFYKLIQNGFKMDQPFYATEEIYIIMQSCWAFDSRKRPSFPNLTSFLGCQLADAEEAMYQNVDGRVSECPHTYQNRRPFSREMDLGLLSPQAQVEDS
Outline: (§1)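 Steps: substrate in reaction buffer (20 mM Hepes pH 7.5, 10 mM MgCl2, 2 mM DTT, 1% DMSO); cofactors added; kinase added; compound dispensed acoustically, 20 min RT; 33P-ATP added; 2 h RT; P81 filter capture.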

[2] = target: T2, IRAK4 (Homo sapiens, UniProt Q9NWZ3); experiment: RBC HotSpot Kinase Assay, IRAK4; format: biochemical; set-up: purchased Reaction Biology (RBC), HotSpot kinase assay; conditions: isolated kinase, 33P-ATP
T2 sequence (Q9NWZ3 1-460): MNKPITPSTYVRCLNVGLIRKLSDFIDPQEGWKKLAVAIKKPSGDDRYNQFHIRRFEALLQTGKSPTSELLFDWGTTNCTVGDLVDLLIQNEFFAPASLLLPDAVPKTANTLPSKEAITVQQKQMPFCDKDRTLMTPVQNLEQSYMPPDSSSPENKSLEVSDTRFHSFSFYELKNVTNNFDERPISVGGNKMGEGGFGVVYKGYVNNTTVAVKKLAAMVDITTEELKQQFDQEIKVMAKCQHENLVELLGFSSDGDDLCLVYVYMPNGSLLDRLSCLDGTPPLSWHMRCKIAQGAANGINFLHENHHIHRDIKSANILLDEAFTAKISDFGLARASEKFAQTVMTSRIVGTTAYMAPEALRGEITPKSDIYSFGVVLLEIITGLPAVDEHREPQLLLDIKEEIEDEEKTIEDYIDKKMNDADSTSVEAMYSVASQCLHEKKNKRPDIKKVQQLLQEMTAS
Outline: as §1

IC50 [1]: < 0.5 nM | IC50 [2]: 2 nM
SMILES: CC(C)(C)c1cn2c(-c3nc(N[C@H]4CNCC[C@@H]4F)c(F)cc3F)cnc2cn1 [Compound 127, 6-(6-(tert-butyl)imidazo[1,2-a]pyrazin-3-yl)-3,5-difluoro-N-((3S,4S)-4-fluoropiperidin-3-yl)pyridin-2-amine]

IC50 [1]: < 0.5 nM | IC50 [2]: 1 nM
SMILES: CC(C)(C)c1cn2c(-c3cccc(N[C@@H]4CCCNC4)n3)cnc2cn1 [Compound 129, (R)-6-(6-(tert-butyl)imidazo[1,2-a]pyrazin-3-yl)-N-(piperidin-3-yl)pyridin-2-amine]

IC50 [1]: < 0.5 nM | IC50 [2]: 3 nM
SMILES: CC(C)(C)c1cn2c(-c3cccc(N[C@H]4CNCC[C@@H]4F)n3)cnc2cn1 [Compound 130, 6-(6-(tert-butyl)imidazo[1,2-a]pyrazin-3-yl)-N-((3S,4S)-4-fluoropiperidin-3-yl)pyridin-2-amine]

Continued, molecule first:

SMILES: O=C1CCCN1c1cn2c(-c3cccc(N[C@H]4CNC[C@@H]4F)n3)cnc2cn1 [Compound 121, 1-(3-(6-(((3S,4S)-4-fluoropyrrolidin-3-yl)amino)pyridin-2-yl)imidazo[1,2-a]pyrazin-6-yl)pyrrolidin-2-one]
IC50 [1]: < 0.5 nM | IC50 [2]: 5 nM

SMILES: CC(C)(C)c1cn2c(-c3nc(N[C@H]4CNC[C@@H]4F)c(F)cc3F)cnc2cn1 [Compound 125]
IC50 [1]: < 0.5 nM | IC50 [2]: 0.7 nM

SMILES: CC(C)(C)c1cn2c(-c3nc(N[C@@H]4CCCNC4)c(F)cc3F)cnc2cn1 [Compound 126, (R)-6-(6-(tert-butyl)imidazo[1,2-a]pyrazin-3-yl)-3,5-difluoro-N-(piperidin-3-yl)pyridin-2-amine]
IC50 [1]: < 0.5 nM | IC50 [2]: 2 nM
